Data from ChEMBL document CHEMBL1155971, “Discovery of a novel class of isoxazoline voltage gated sodium channel blockers” (Bioorg Med Chem Lett, 2009).

Tests used:
[1] = molecular target: T1, Sodium channel protein type 9 subunit alpha (Homo sapiens, UniProt Q15858); assay: Inhibition of human Nav1.7 channel expressed in HEK cells by FRET assay; format: cell-based, HEK293
Target sequence in this assay (Q15858 whole entry): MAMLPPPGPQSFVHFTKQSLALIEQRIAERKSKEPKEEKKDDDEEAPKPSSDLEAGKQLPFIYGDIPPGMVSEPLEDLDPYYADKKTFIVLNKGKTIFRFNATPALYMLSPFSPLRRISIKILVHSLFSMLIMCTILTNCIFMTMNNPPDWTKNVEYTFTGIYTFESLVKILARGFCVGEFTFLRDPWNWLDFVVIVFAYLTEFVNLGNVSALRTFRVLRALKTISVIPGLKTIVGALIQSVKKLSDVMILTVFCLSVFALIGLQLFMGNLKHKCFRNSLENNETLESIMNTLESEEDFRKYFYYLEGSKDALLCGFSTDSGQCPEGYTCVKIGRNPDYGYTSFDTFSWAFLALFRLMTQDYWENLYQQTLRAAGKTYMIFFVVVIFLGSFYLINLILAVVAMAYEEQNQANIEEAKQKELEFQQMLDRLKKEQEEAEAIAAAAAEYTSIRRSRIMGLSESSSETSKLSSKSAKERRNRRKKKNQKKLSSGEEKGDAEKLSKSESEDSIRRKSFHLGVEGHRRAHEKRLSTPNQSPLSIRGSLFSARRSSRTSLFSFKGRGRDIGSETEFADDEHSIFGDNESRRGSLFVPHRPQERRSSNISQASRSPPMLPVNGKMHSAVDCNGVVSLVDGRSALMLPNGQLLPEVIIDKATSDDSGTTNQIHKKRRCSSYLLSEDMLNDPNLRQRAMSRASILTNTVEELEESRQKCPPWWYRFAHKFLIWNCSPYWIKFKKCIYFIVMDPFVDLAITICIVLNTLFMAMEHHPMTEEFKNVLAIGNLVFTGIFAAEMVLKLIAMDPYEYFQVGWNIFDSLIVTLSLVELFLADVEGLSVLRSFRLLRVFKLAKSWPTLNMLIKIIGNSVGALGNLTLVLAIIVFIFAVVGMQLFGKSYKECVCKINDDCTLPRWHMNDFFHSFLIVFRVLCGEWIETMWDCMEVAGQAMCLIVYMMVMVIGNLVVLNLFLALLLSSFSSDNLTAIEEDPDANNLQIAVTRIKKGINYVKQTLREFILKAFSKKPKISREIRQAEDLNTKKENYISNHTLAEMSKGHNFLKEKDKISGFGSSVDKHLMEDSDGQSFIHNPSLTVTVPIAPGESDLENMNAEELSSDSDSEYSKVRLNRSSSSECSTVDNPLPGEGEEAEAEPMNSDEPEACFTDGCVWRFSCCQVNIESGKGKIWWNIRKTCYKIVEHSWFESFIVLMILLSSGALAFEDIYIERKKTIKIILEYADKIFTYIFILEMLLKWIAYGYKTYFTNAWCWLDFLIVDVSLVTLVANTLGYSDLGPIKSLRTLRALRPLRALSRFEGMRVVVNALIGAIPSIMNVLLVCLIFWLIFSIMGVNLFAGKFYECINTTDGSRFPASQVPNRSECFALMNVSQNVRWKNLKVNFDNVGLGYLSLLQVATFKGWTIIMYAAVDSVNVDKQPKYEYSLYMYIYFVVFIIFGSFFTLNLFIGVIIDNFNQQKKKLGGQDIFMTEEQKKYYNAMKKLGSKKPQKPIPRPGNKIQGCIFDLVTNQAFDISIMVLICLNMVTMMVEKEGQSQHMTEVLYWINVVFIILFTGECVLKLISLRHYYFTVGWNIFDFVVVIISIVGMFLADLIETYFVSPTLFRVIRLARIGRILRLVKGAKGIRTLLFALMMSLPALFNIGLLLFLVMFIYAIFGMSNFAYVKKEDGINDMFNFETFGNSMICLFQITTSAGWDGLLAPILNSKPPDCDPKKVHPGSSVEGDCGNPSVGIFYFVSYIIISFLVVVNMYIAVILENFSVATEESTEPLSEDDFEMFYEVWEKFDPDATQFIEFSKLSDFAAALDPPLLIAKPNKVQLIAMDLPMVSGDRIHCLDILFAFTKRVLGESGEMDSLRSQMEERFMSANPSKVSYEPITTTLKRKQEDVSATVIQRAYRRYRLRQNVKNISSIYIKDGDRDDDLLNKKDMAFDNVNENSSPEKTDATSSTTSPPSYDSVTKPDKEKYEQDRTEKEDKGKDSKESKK

[2] = molecular target: T1, Sodium channel protein type 9 subunit alpha; assay: Inhibition of human Nav1.7 channel expressed in HEK cells at 1 uM by FRET assay; format: cell-based; conditions: HEK293
Target sequence in this assay (Q15858 whole entry, looked up): as the sequence (Q15858 whole entry) above

[3] = Bioavailability in Sprague-Dawley rat; format: ADME, organism-based; conditions: in vivo
[4] = Half life in Sprague-Dawley rat; format: ADME, organism-based; conditions: in vivo
[5] = Plasma clearance in Sprague-Dawley rat; format: ADME, organism-based
Rattus norvegicus [6] = assay: Analgesic activity in Freund's complete adjuvant-induced rat pain model assessed as reversal of mechanic allodynia at 3 mg/kg, po after 2 hrs; format: functional
Rattus norvegicus [7] = assay: Analgesic activity in Freund's complete adjuvant-induced rat pain model assessed as reversal of mechanic allodynia at 3 mg/kg, po after 3 hrs; format: functional
Rattus norvegicus [8] = assay: Analgesic activity in Freund's complete adjuvant-induced rat pain model assessed as reversal of mechanic allodynia at 10 mg/kg, po after 3 hrs; format: functional
Rattus norvegicus [9] = assay: Analgesic activity in spinal nerve ligation-induced rat neuropathic pain model assessed as reversal of allodynia at 10 mg/kg, po after 3 hrs; format: functional

| SMILES | IC50 [1] [nM] | inhibition [2] [%] | also measured |
| --- | --- | --- | --- |
| O=C(NCc1ccc(OC(F)(F)F)cc1)[C@@H]1CCC[C@H]1C1=NC(c2ccc(Cl)cc2)CO1 (mixture of isomers) | 970 | 56 |  |
| O=C(NCc1ccc(OC(F)(F)F)cc1)[C@@H]1CCC[C@H]1C1=NOC(c2ccc(Cl)cc2)C1 (mixture of isomers) | 430 | 92 |  |
| O=C(NCc1ccc(OC(F)(F)F)cc1)[C@@H]1CCC[C@H]1C1=NOC(c2ccc(OC(F)(F)F)cc2)C1 (mixture of isomers) | 500 | 93 |  |
| O=C(NCc1ccc(OC(F)(F)F)cc1)[C@@H]1CCC[C@H]1C1=NOC(c2cccc(Cl)c2)C1 (mixture of isomers) | 480 | 90 |  |
| O=C(NCc1ccc(OC(F)(F)F)cc1)[C@@H]1CCC[C@H]1C1=NCC(c2ccccc2)O1 (mixture of isomers) | 620 | 71 |  |
| COC(=O)c1ccc(C2CC([C@@H]3CCC[C@H]3C(=O)NCc3ccc(OC(F)(F)F)cc3)=NO2)cc1 (mixture of isomers) | 340 | 87 |  |
| O=C(NCc1ccc(OC(F)(F)F)cc1)[C@@H]1CCC[C@H]1C1=NOC(c2ccccc2)C1 (mixture of isomers) | 780 | 76 |  |
| CC(C)Oc1ccc(CNC(=O)[C@@H]2CCC[C@H]2C2=NOC(C)(c3ccccc3)C2)cc1 (mixture of isomers) | 1500 |  |  |
| CC1(c2ccccc2)CC([C@@H]2CCC[C@H]2C(=O)NCc2ccc(OC(F)(F)F)cc2)=NO1 (mixture of isomers) [listing 1 of 2 here] | 620 |  | bioavailability [3]: 16%; half-life [4]: 2.9 h; clearance [5]: 17.8 mL/min/kg; Activity (Rattus norvegicus [6]): 20%; Activity (Rattus norvegicus [7]; 3 mg/kg): 48% |
| CC1(c2ccccc2)CC([C@@H]2CCC[C@H]2C(=O)NCc2ccc(C(F)(F)F)cc2)=NO1 (mixture of isomers) | 2500 |  |  |
| COC(=O)c1cccc(C2CC([C@@H]3CCC[C@H]3C(=O)NCc3ccc(OC(F)(F)F)cc3)=NO2)c1 (mixture of isomers) | 710 | 75 |  |
| CC(C)(C)Oc1ccc(CNC(=O)[C@@H]2CCC[C@H]2C2=NOC(C)(c3ccccc3)C2)cc1 (mixture of isomers) |  | 26 |  |
| CC1(c2ccccc2)CC([C@@H]2CCC[C@H]2C(=O)NCc2ccc(-c3ccccc3S(C)(=O)=O)cc2)=NO1 (mixture of isomers) |  | 0 |  |
| CC1(c2ccccc2)CC([C@@H]2CCC[C@H]2C(=O)NCc2ccc(Cl)cc2)=NO1 (mixture of isomers) |  | 15 |  |
| CC1(c2ccccc2)CC([C@@H]2CCC[C@H]2C(=O)NCc2ccc(OC(F)(F)F)cc2)=NO1 (mixture of isomers) [listing 2 of 2 here] |  | 63 |  |
| CC1(c2ccccc2)CC([C@@H]2CCC[C@H]2C(=O)NCc2ccc(OC(F)(F)F)cc2S(C)(=O)=O)=NO1 (mixture of isomers) |  | 13 |  |
| CC1(c2ccccc2)CC([C@@H]2CCC[C@H]2C(=O)NCc2ccccc2)=NO1 (mixture of isomers) |  | 19 |  |
| CC1(c2ccccc2)CC([C@@H]2CCC[C@H]2C(=O)Nc2ccc(OC(F)(F)F)cc2)=NO1 (mixture of isomers) |  | 30 |  |
| CC1(c2ccccc2)CC([C@@H]2CCC[C@H]2C(=O)Nc2ccc3ncccc3c2)=NO1 (mixture of isomers) |  | 17 |  |
| CN(Cc1ccc(-c2ccccc2S(C)(=O)=O)cc1)C(=O)[C@@H]1CCC[C@H]1C1=NOC(C)(c2ccccc2)C1 (mixture of isomers) |  | 0 |  |
| CNC(=O)c1ccc(C2CC([C@@H]3CCC[C@H]3C(=O)NCc3ccc(OC(F)(F)F)cc3)=NO2)cc1 (mixture of isomers) |  | 14 |  |
| CS(=O)(=O)c1ccc(C2CC([C@@H]3CCC[C@H]3C(=O)NCc3ccc(OC(F)(F)F)cc3)=NO2)cc1 (mixture of isomers) |  | 26 |  |

| SMILES | IC50 [1] [nM] | inhibition [2] [%] | also measured |
| --- | --- | --- | --- |
| CS(=O)(=O)c1ccc(C2CC([C@@H]3CCC[C@H]3c3cc(-c4ccccc4)on3)=NO2)cc1 (mixture of isomers) |  | 43 |  |
| Clc1cc(Cl)cc(C2CC([C@@H]3CCC[C@H]3c3cc(-c4ccccc4)on3)=NO2)c1 (mixture of isomers) |  | 35 |  |
| FC(F)(F)Oc1ccc(C2CC([C@@H]3CCC[C@H]3c3cc(-c4ccccc4)on3)=NO2)cc1 (mixture of isomers) |  | 18 |  |
| NC(=O)c1ccc(C2CC([C@@H]3CCC[C@H]3C(=O)NCc3ccc(OC(F)(F)F)cc3)=NO2)cc1 (mixture of isomers) |  | 0 |  |
| O=C(NCc1ccc(OC(F)(F)F)cc1)[C@@H]1CCC[C@H]1C1=NOC(CO)(c2ccccc2)C1 (mixture of isomers) |  | 23 |  |
| O=C(NCc1ccc(OC(F)(F)F)cc1)[C@@H]1CCC[C@H]1C1=NOC(c2ccccn2)C1 (mixture of isomers) |  | 0 |  |
| O=C(O)c1ccc(C2CC([C@@H]3CCC[C@H]3C(=O)NCc3ccc(OC(F)(F)F)cc3)=NO2)cc1 (mixture of isomers) |  | 0 |  |
| c1ccc(-c2cc([C@@H]3CCC[C@H]3C3=NOC(c4ccccc4)C3)no2)cc1 (mixture of isomers) |  | 13 |  |
| O=C(NCc1ccc(OC(F)(F)F)cc1)[C@@H]1CCC[C@H]1c1cc(-c2ccc(Cl)cc2)on1 (racemic) |  | 33 |  |
| O=C(NCc1ccc(OC(F)(F)F)cc1)[C@@H]1CCC[C@H]1c1cc(-c2ccccc2)on1 (racemic) |  | 38 |  |
| O=C(NCc1ccc(OC(F)(F)F)cc1)[C@@H]1CCC[C@H]1c1nc(-c2ccccc2)co1 (racemic) |  | 19 |  |
| O=C(NCc1ccc(OC(F)(F)F)cc1)[C@@H]1CCC[C@H]1c1ncc(-c2ccccc2)o1 (racemic) |  | 0 |  |
| CN(Cc1ccc(-c2ccccc2S(N)(=O)=O)cc1)C(=O)[C@@H]1CCC[C@H]1C(=O)NCc1ccc(OC(F)(F)F)cc1 (relative stereo) | 830 |  | Activity (Rattus norvegicus [7]): 31%; Activity (Rattus norvegicus [8]): 54%; Activity (Rattus norvegicus [9]): 35% |
| CC1(c2ccccc2)CC([C@@H]2CCC[C@H]2C(=O)NCc2ccc(OC(F)(F)F)cc2)=NO1 (relative stereo) [listing 1 of 2 here] |  |  | Activity (Rattus norvegicus [7]; 3 mg/kg): 31% |
| CC1(c2ccccc2)CC([C@@H]2CCC[C@H]2C(=O)NCc2ccc(OC(F)(F)F)cc2)=NO1 (relative stereo) [listing 2 of 2 here] |  | 35 |  |
| COc1ccc(CNC(=O)[C@@H]2CCC[C@H]2C2=NOC(C)(c3ccccc3)C2)cc1 (relative stereo) |  | 16 |  |
| CC1(c2ccccc2)CC([C@@H]2CCC[C@H]2C(=O)NCc2ccc(OC(F)(F)F)cc2)=NO1 (single isomer, unassigned; diastereomer a) [listing 1 of 2 here] | 960 |  | Activity (Rattus norvegicus [7]; 3 mg/kg): 53%; Activity (Rattus norvegicus [9]): 21% |
| CC1(c2ccccc2)CC([C@@H]2CCC[C@H]2C(=O)NCc2ccc(OC(F)(F)F)cc2)=NO1 (single isomer, unassigned; diastereomer a) [listing 2 of 2 here] |  | 64 |  |
| CC1(c2ccccc2)CC([C@@H]2CCC[C@H]2C(=O)NCc2ccc(OC(F)(F)F)cc2)=NO1 (single isomer, unassigned; diastereomer b) [listing 1 of 2 here] |  |  | Activity (Rattus norvegicus [7]; 3 mg/kg): 26% |
| CC1(c2ccccc2)CC([C@@H]2CCC[C@H]2C(=O)NCc2ccc(OC(F)(F)F)cc2)=NO1 (single isomer, unassigned; diastereomer b) [listing 2 of 2 here] |  | 37 |  |
| CC1(c2ccccc2)CC([C@@H]2CCC[C@H]2C(=O)NCc2ccc(OC(F)(F)F)cc2)=NO1 (single isomer, unassigned; diastereomer c) [listing 1 of 2 here] | 1200 |  | Activity (Rattus norvegicus [7]; 3 mg/kg): 20% |
| CC1(c2ccccc2)CC([C@@H]2CCC[C@H]2C(=O)NCc2ccc(OC(F)(F)F)cc2)=NO1 (single isomer, unassigned; diastereomer c) [listing 2 of 2 here] |  | 48 |  |
